Assay results taken from ChEMBL document CHEMBL6103575, “Design, synthesis and evaluation of (E)-1-(4-(2-(1H-pyrazol-5-yl)vinyl)phenyl) derivatives as next generation selective RET inhibitors overcoming RET solvent front mutations (G810C/R)” (Eur J Med Chem, 2025).

Columns and labels:
[1] = Induction of cell cycle arrest in mouse BaF3 cells harboring CCDC6-RET assessed as accumulation of cells at G0/G1 phase at 10 nM incubated for 24 hrs by propidium iodide staining based analysis (reference value: 52.51%); assay type: functional
[2] = Induction of cell cycle arrest in mouse BaF3 cells harboring CCDC6-RET G810R mutant assessed as accumulation of cells at G0/G1 phase at 100 nM incubated for 24 hrs by propidium iodide staining based analysis (reference value: 52.63%); assay type: functional
BaF3 [3] = test: Inhibition of RET phosphorylation in mouse BaF3 cells harboring CCDC6-RET incubated for 12 hrs by Western blotting analysis; assay type: cell-based; details: dose <= 300.0 nM
[4] = Induction of apoptosis in mouse BaF3 cells harboring CCDC6-RET assessed as early apoptotic cells at 10 nM incubated for 48 hrs by Annexin V-PE staining based flow cytometry analysis (Rvb =6.21%); assay type: functional
[5] = Induction of cell cycle arrest in mouse BaF3 cells harboring CCDC6-RET G810C mutant assessed as accumulation of cells at S phase at 30 nM incubated for 24 hrs by propidium iodide staining based analysis (reference value: 12.47%); assay type: functional
[6] = Induction of cell cycle arrest in mouse BaF3 cells harboring CCDC6-RET G810C mutant assessed as accumulation of cells at G2/M phase at 10 nM incubated for 24 hrs by propidium iodide staining based analysis (reference value: 34.75%); assay type: functional
[7] = Induction of apoptosis in mouse BaF3 cells harboring CCDC6-RET assessed as late apoptotic cells at 30 nM incubated for 48 hrs by Annexin V-PE staining based flow cytometry analysis (Rvb =2.44%); assay type: functional
[8] = Induction of cell cycle arrest in mouse BaF3 cells harboring CCDC6-RET G810C mutant assessed as accumulation of cells at G0/G1 phase at 10 nM incubated for 24 hrs by propidium iodide staining based analysis (reference value: 52.11%); assay type: functional
BaF3 [9] = test: Inhibition of RET phosphorylation in mouse BaF3 cells harboring CCDC6-RET G810R mutant incubated for 12 hrs by Western blotting analysis; assay type: cell-based; details: dose <= 300.0 nM
[10] = Induction of apoptosis in mouse BaF3 cells harboring CCDC6-RET assessed as early apoptotic cells at 30 nM incubated for 48 hrs by Annexin V-PE staining based flow cytometry analysis (Rvb =6.21%); assay type: functional
[11] = Induction of apoptosis in mouse BaF3 cells harboring CCDC6-RET G810R mutant assessed as necrotic cells at 100 nM incubated for 48 hrs by Annexin V-PE staining based flow cytometry analysis (Rvb =0.30%); assay type: functional
[12] = target: BDNF/NT-3 growth factors receptor (Homo sapiens, UniProt Q16620); test: Inhibition of TRKB (unknown origin)
Sequence of BDNF/NT-3 growth factors receptor (Q16620 whole entry): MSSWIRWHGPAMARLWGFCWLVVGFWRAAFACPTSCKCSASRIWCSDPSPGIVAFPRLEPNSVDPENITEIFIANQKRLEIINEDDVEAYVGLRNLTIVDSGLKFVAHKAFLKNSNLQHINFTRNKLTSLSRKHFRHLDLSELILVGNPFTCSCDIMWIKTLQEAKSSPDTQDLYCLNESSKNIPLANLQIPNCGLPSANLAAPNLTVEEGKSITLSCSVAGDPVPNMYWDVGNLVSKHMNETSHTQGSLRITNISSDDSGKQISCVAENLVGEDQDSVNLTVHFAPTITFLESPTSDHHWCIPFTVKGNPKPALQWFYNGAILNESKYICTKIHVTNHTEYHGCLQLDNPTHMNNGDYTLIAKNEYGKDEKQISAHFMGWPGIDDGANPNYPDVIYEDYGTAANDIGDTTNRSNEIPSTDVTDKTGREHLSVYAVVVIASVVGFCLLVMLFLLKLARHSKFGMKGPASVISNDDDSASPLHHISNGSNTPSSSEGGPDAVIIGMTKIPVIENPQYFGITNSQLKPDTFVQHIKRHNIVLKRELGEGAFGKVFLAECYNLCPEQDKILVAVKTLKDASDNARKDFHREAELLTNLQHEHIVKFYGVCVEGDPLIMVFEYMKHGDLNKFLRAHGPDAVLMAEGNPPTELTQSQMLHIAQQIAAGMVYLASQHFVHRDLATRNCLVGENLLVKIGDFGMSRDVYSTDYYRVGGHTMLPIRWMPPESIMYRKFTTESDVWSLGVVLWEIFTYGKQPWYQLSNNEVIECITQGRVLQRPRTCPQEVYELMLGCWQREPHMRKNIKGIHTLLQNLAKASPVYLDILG

[13] = target: Platelet-derived growth factor receptor alpha (Homo sapiens, UniProt P16234); test: Inhibition of PDGFRalpha (unknown origin) at 1 uM relative to control
Sequence of Platelet-derived growth factor receptor alpha (P16234 whole entry): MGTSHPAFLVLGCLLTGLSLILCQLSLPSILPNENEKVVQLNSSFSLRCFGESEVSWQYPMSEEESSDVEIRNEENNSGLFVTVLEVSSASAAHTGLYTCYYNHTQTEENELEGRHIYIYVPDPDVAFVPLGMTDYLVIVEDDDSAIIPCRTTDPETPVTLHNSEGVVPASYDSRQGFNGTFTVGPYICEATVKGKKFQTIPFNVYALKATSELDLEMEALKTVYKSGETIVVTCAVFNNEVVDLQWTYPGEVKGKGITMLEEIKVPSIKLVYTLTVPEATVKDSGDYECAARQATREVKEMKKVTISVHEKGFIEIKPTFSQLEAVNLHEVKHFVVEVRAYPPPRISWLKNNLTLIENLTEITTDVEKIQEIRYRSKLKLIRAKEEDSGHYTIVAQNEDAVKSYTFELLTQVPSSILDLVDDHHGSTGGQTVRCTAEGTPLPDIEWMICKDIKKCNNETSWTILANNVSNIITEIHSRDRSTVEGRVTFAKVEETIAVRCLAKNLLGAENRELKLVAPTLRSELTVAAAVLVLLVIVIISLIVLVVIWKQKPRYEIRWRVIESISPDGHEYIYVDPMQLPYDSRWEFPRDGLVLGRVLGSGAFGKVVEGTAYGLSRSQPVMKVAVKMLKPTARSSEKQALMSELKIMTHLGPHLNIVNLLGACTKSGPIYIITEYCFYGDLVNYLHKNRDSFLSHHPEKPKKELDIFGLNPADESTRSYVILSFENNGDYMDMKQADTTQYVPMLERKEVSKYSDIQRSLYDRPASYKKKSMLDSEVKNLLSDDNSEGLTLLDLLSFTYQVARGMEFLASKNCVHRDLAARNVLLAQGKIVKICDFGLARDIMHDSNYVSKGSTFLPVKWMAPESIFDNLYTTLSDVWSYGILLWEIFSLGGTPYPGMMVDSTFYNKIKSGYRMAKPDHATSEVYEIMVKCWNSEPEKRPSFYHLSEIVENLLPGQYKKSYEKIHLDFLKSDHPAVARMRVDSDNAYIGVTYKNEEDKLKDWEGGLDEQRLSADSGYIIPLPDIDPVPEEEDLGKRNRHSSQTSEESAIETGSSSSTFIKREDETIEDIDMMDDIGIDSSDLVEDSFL

[14] = Induction of cell cycle arrest in mouse BaF3 cells harboring CCDC6-RET G810R mutant assessed as accumulation of cells at G2/M phase at 10 nM incubated for 24 hrs by propidium iodide staining based analysis (reference value: 33.61%); assay type: functional
[15] = Induction of cell cycle arrest in mouse BaF3 cells harboring CCDC6-RET G810R mutant assessed as accumulation of cells at G2/M phase at 30 nM incubated for 24 hrs by propidium iodide staining based analysis (reference value: 33.61%); assay type: functional
[16] = Induction of cell cycle arrest in mouse BaF3 cells harboring CCDC6-RET G810C mutant assessed as accumulation of cells at S phase at 300 nM incubated for 24 hrs by propidium iodide staining based analysis (reference value: 12.47%); assay type: functional
[17] = Induction of cell cycle arrest in mouse BaF3 cells harboring CCDC6-RET G810C mutant assessed as accumulation of cells at G0/G1 phase at 300 nM incubated for 24 hrs by propidium iodide staining based analysis (reference value: 52.11%); assay type: functional
[18] = Induction of cell cycle arrest in mouse BaF3 cells harboring CCDC6-RET assessed as accumulation of cells at S phase at 300 nM incubated for 24 hrs by propidium iodide staining based analysis (reference value: 13.27%); assay type: functional
[19] = Induction of cell cycle arrest in mouse BaF3 cells harboring CCDC6-RET G810R mutant assessed as accumulation of cells at G0/G1 phase at 300 nM incubated for 24 hrs by propidium iodide staining based analysis (reference value: 52.63%); assay type: functional
[20] = Induction of apoptosis in mouse BaF3 cells harboring CCDC6-RET assessed as late apoptotic cells at 100 nM incubated for 48 hrs by Annexin V-PE staining based flow cytometry analysis (Rvb =2.44%); assay type: functional
[21] = Induction of apoptosis in mouse BaF3 cells harboring CCDC6-RET G810C mutant assessed as necrotic cells at 100 nM incubated for 48 hrs by Annexin V-PE staining based flow cytometry analysis (Rvb =0.48%); assay type: functional
[22] = Induction of cell cycle arrest in mouse BaF3 cells harboring CCDC6-RET G810R mutant assessed as accumulation of cells at S phase at 300 nM incubated for 24 hrs by propidium iodide staining based analysis (reference value: 13.66%); assay type: functional
[23] = Induction of apoptosis in mouse BaF3 cells harboring CCDC6-RET G810R mutant assessed as viable cells at 10 nM incubated for 48 hrs by Annexin V-PE staining based flow cytometry analysis (Rvb =86.40%); assay type: functional; details: read-out: Activity
[24] = target: Proto-oncogene tyrosine-protein kinase receptor Ret (Homo sapiens, UniProt P07949); test: Inhibition of RET (unknown origin)
Sequence of Proto-oncogene tyrosine-protein kinase receptor Ret (P07949 whole entry): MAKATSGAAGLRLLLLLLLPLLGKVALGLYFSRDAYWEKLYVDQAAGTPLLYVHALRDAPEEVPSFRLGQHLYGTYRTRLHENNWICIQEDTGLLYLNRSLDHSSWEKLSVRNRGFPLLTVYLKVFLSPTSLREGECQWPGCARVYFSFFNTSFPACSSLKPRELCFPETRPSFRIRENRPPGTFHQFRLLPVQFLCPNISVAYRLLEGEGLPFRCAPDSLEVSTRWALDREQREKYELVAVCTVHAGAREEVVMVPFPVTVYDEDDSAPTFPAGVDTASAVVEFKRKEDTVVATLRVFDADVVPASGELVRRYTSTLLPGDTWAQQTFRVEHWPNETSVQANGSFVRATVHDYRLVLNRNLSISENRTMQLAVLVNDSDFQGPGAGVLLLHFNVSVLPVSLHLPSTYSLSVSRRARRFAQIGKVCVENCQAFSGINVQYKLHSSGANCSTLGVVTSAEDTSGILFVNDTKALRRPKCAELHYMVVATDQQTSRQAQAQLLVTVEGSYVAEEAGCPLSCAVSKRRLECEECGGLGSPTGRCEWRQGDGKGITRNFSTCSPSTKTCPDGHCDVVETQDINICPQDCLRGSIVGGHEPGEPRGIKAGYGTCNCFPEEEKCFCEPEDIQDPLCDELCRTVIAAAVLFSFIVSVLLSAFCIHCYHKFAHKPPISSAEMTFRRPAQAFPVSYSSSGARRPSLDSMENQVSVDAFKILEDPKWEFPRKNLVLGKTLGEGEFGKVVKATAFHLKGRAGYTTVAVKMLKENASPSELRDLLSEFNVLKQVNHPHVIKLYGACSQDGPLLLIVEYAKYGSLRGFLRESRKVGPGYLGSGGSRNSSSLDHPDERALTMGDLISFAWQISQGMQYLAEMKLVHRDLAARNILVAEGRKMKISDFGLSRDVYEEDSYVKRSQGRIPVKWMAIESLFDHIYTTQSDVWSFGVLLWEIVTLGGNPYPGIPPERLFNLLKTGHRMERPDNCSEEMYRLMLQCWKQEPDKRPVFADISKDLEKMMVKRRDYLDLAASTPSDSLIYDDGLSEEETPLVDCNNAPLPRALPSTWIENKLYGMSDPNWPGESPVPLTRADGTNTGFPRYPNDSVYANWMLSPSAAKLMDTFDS

[25] = Induction of apoptosis in mouse BaF3 cells harboring CCDC6-RET G810C mutant assessed as late apoptotic cells at 300 nM incubated for 48 hrs by Annexin V-PE staining based flow cytometry analysis (Rvb =4.30%); assay type: functional
[26] = Induction of apoptosis in mouse BaF3 cells harboring CCDC6-RET G810R mutant assessed as early apoptotic cells at 300 nM incubated for 48 hrs by Annexin V-PE staining based flow cytometry analysis (Rvb =10 %); assay type: functional
[27] = Induction of apoptosis in mouse BaF3 cells harboring CCDC6-RET assessed as necrotic cells at 100 nM incubated for 48 hrs by Annexin V-PE staining based flow cytometry analysis (Rvb =0.19%); assay type: functional
BaF3 [28] = test: Inhibition of RET phosphorylation in mouse BaF3 cells harboring CCDC6-RET G810C mutant incubated for 12 hrs by Western blotting analysis; assay type: cell-based; details: dose <= 300.0 nM
[29] = Induction of apoptosis in mouse BaF3 cells harboring CCDC6-RET assessed as necrotic cells at 10 nM incubated for 48 hrs by Annexin V-PE staining based flow cytometry analysis (Rvb =0.19%); assay type: functional
[30] = Induction of cell cycle arrest in mouse BaF3 cells harboring CCDC6-RET G810R mutant assessed as accumulation of cells at S phase at 30 nM incubated for 24 hrs by propidium iodide staining based analysis (reference value: 13.66%); assay type: functional

With `COc1cncc(-c2cn[nH]c2/C=C/c2ccc(NC(=O)Nc3cc(C(C)(C)C(F)(F)F)on3)c(Cl)c2)c1` the Activity [1] was 54%, the Activity [2] was 57.96% and the inhibition (BaF3 [3]) was “Dose-dependent-effect”. For the same molecule, the Activity [4] was 8.7%, the Activity [5] was 11.11% and the Activity [6] was 33.74%. The Activity [7] was 0.8%, the Activity [8] was 52.74% and the inhibition (BaF3 [9]) was “Dose-dependent-effect”. For the same molecule, the Activity [10] was 22.34%, the Activity [11] was 0.79% and the IC50 [12] was 86.7 nM. The inhibition [13] was 101%, the Activity [14] was 32.33% and the Activity [15] was 32.17%. For the same molecule, the Activity [16] was 4.14%, the Activity [17] was 72.47% and the Activity [18] was 3.34%. It also gave an Activity [19] of 78.85%, an Activity [20] of 1.21% and an Activity [21] of 0.24%. The Activity [22] was 4.8%, the viability at 0.01 µM [23] was 86.4% and the IC50 [24] was 4.2 nM. It also gave an Activity [25] of 0.31%, an Activity [26] of 0.29% and an Activity [27] of 0.05%. The inhibition (BaF3 [28]) was “Dose-dependent-effect”, the Activity [29] was 0.14% and the Activity [30] was 14.08%.
